The record followed here is patent publication US10231979B2, “Modulation of inflammation using progesterone metabolites” (Indiana University Research and Technology Corporation, priority 2015, dated 2019).

Several values for one entry are separate records, joined by “and”; a condition that tells them apart may be missing. Equal entries are not always repeated. Where two headings read alike, the source gives them in different places.

Assay [1] relates to uterine horns from wild-type (WT) C57BL/6J female mice. Briefly: Spontaneous uterine contractility, isolated uterine horns in tissue organ bath. To be noted: for IC50: spontaneous, dose-response 10^-9 to 10^-6 mol/L; for Spontaneous contractile force compared with the vehicle control (in words) / Spontaneous uterine contraction frequency compared to vehicle control (in words) / Contractile Frequency/10 min (% of baseline), Drug / Contractile Force (% of baseline), Drug: maximal treatment dose; for Contractile Frequency/10 min (% of baseline), Drug / Contractile Force (% of baseline), Drug: spontaneous contractility; for Contractile Force (% of baseline), Drug: AUC as % of baseline AUC. As to the method: (§1) FIGS. 2A & 2B are representative contraction tracings of uterine horns from wild-type (WT) C57BL/6J female mice. FIG. 2A: Uterine horns were isolated and suspended in a tissue organ bath at 0.5 g of tension. Once equilibrated, selected progestin treatments were added in successively increasing concentrations from 10^−9 to 10^−6 mol/L in 20-minute intervals to assess effect on spontaneous contractile activity (progesterone treatment, bottom panel). The contralateral horn from each mouse was treated with a matching ethanol vehicle (top panel). All contraction responses were measured and reported as the area under the contraction curve (AUC), normalized to the AUC of the spontaneous contraction pattern that preceded treatment. FIG. 2B: Treatment effect on oxytocin-induced contractility was assessed by exposing horns to selected progestin treatments (10^−6 mol/L), followed by increasing doses of oxytocin (Oxt) (1, 10, 50, and 100 nmol/L) in 10-minute intervals (bottom panel). The contralateral horn from each mouse was treated with a matching ethanol vehicle (top panel). Contraction responses were measured and reported as described above.
(§2) All progestins were solubilized in ethanol and then diluted in phosphate-buffered saline to the desired molar concentration. […] The concentration of ethanol decreased parallel to the progestin dose in order to minimize the effect of the solvent on uterine contractility.
(§3) Virgin nonpregnant wild-type C57BL/6J female mice (Jackson Labs, Bar Harbor, Me.) were obtained at 10 to 12 weeks of age and fed a standard diet. Mice were euthanized by an IACUC-approved protocol, and each of the 2 uterine horns were removed. A 1 cm×0.5 cm segment of the uterine horn was suspended using 4-0 silk suture between a stainless steel wire hook connected to a Radnoti force displacement transducer (Radnoti LLC, Monrovia, Calif.) and a glass hook inside an organ bath that served as an anchor. The bath was filled with modified Krebs buffer (118 mmol/L NaCl, […], 1.2 mmol/L MgSO4, 1.2 mmol/L KH2PO4, 2.5 mmol/L CaCl2, 25 mmol/L NaHCO3, and 11 mmol/L glucose, pH 7.4), maintained at 37° C., and constantly bubbled with a premixed gas consisting of 20% O2, 5% CO2, and balance N2. Uterine horns were equilibrated at 0.5 g of tension for approximately 30 minutes until a spontaneous contraction pattern was established.
A total of 60 mice were utilized to assess the effect of the selected treatments on uterine contractility, 30 in the spontaneous contraction group and 30 in the oxytocin-induced group. Six mice were in each progestin treatment group during both spontaneous and oxytocin-induced contractility arms of the study. To determine the nongenomic (acute) effect of the progestin treatments on spontaneous uterine contractility, a segment of uterine horn from each mouse was exposed to a single progestin (progesterone, 17-OHPC, 2α-OHP, 6β-OHP, or 16αOHP), while a segment of the contralateral horn was exposed to a matching dose of ethanol vehicle. After a spontaneous contraction pattern was achieved, the progestin treatment was added to the tissue organ bath in successively increasing concentrations from 10^−9 to 10^−6 mol/L in 20-minute intervals. At the end of the treatments, the tissue was washed in modified Krebs buffer and then exposed to KCl (60 mmol/L) to elicit a tetanic response and confirm tissue viability.
Uterine contraction responses were recorded using LabChart Pro (ADInstruments, Colorado Springs, Colo.) software as the force generated with time (g×min). Baseline uterine contractility was calculated as the area under the curve (AUC) for a 10-minute period of spontaneous contractions. The AUC of the uterine contractile response to each treatment (progestin or oxytocin) was determined and expressed as a percentage of the baseline AUC observed during spontaneous contraction. […]

Assay [2] has the same test system. In words: Oxytocin-induced uterine contractility after progestin pretreatment, isolated uterine horns in tissue organ bath. To be noted: for EC50: oxytocin-induced dose-response (1-100 nmol/L oxytocin) after progestin pretreatment 10^-6 mol/L; for Contractile Force (% of baseline), Drug / Contractile Frequency/10 min (% of baseline), Drug: oxytocin-induced, progestin pretreatment 10^-6 mol/L. The protocol: as §1, §2, §3
To determine the nongenomic effect of progestin treatments on oxytocin-induced uterine contractility, the uterine horns were pretreated with a single progestin at 10^−6 mol/L for 10 minutes after a spontaneous contractile pattern was established. The contralateral horn from the same mouse was treated with ethanol vehicle at a matching concentration. The uterine horns were subsequently exposed to increasing concentrations of oxytocin (1, 10, 50, and 100 nmol/L) in 10-minute intervals. At the end of the oxytocin treatments, the tissue was washed and then exposed to KCl (60 mmol/L) to elicit a tetanic response and confirm tissue viability.
Uterine contraction responses were recorded using LabChart Pro (ADInstruments, Colorado Springs, Colo.) software as the force generated with time (g×min). Baseline uterine contractility was calculated as the area under the curve (AUC) for a 10-minute period of spontaneous contractions. The AUC of the uterine contractile response to each treatment (progestin or oxytocin) was determined and expressed as a percentage of the baseline AUC observed during spontaneous contraction. […] To account for repeated measurements for individual muscle strips at increasing treatment doses, a repeated measures 2-way analysis of variance model was used to compare the dose-response curves. Each dose-response curve was fit by nonlinear regression and compared using an extra sum of squares F test. The mean max-fit response was compared between each progestin and vehicle control to determine maximum treatment efficacy. […]

Assay [3] relates to primary uterine smooth muscle cells (UtSMC). Briefly: IL-6 production in UtSMC stimulated with LPS. It is filed as cell-based. To be noted: UtSMC pre-treated, then LPS. The protocol: In this Example, the effect of progesterone metabolites 16αOHP and 6β-OHP on inflammation in primary uterine smooth muscle cells (UtSMC) was analyzed.
UtSMC were cultured in the presence of DMSO and one of the following: (1) progesterone; (2) […]; (3) 6β-OHP; and (4) 16αOHP. Lipopolysaccharide (LPS) was then added to the culture to stimulate an immune inflammatory reaction. Experiments were performed in triplicate.

Where [4] appears, read: maximal oxytocin dose (100 nmol/L).

One may read the IC50 as the concentration needed to halve the response being measured. As a reminder, the EC50 is the midpoint of the concentration-response curve. As for `CCCCCC(=O)O[C@]1(C(C)=O)CC[C@H]2[C@@H]3CCC4=CC(=O)CC[C@]4(C)[C@H]3CC[C@@]21C` [17-OHPC, 4-pregnen-17-ol-3,20-dione caproate, reference compound], in assay [1] (Mus musculus, read-out: Contractile Force IC50), the half-inhibitory concentration (IC50) was found to be 0.78 nM. Moreover, the IC50 in assay [1] (Mus musculus, read-out: Contractile Frequency IC50) worked out at 0.31 nM. In assay [1], the “Spontaneous contractile force compared with the vehicle control (in words)” value is “No significant difference”; the “Spontaneous uterine contraction frequency compared to vehicle control (in words)” value is “not significantly decreased”; the “Contractile Frequency/10 min (% of baseline), Drug” value is on record as 57.9% of baseline; the “Contractile Force (% of baseline), Drug” value was 50.4% of baseline. The EC50 in assay [2] (Mus musculus, read-out: Contractile Force EC50) stood at 8.43 nM. Moreover, in assay [2] (Mus musculus, read-out: Contractile Frequency EC50), the EC50 worked out at 3.26 nM. Also, in assay [2] (setting [4]), the “Oxytocin-induced contraction frequency compared to control (in words)” value is given as “decreased significantly”; the “Contractile Force (% of baseline), Drug” value was 218.4 % of baseline; the “Contractile Frequency/10 min (% of baseline), Drug” value is 130 % of baseline and 130.2% of baseline.

As to `CC(=O)[C@H]1CC[C@H]2[C@@H]3CCC4=CC(=O)[C@H](O)C[C@]4(C)[C@H]3CC[C@]12C` [2α-OHP, 4-pregnen-2α-ol-3,20-dione], in assay [1], the “Spontaneous contractile force compared with the vehicle control (in words)” value is “No significant difference”; the “Spontaneous uterine contraction frequency compared to vehicle control (in words)” value is given as “not significantly decreased”; the “Contractile Frequency/10 min (% of baseline), Drug” value is 53.7% of baseline; the “Contractile Force (% of baseline), Drug” value is listed as 37.9% of baseline. Besides, in assay [1] (read-out: Contractile Force IC50), the 50% inhibitory concentration (IC50) came out at 0.32 nM. Also, in assay [1] (read-out: Contractile Frequency IC50), the IC50 was determined as 0.55 nM. Also, in assay [2] (setting [4]), the “Oxytocin-induced contractile force compared to vehicle control (in words)” value was “no differences”; the “Oxytocin-induced contraction frequency compared to control (in words)” value is “not”; the “Contractile Force (% of baseline), Drug” value is listed as 329.5% of baseline; the “Contractile Frequency/10 min (% of baseline), Drug” value is recorded as 168.9% of baseline. For the same molecule, the EC50 in assay [2] (read-out: Contractile Force EC50) worked out at 68.2 nM. Besides, the EC50 in assay [2] (read-out: Contractile Frequency EC50) stood at 646 nM.

Take `C[C@]12CC[C@@H]3c4ccc(O)cc4CC[C@H]3[C@@H]1CC[C@@H]2O` [E2, reference compound]: the IL-6 in assay [3] (LPS positive control 121.7 pg/mL) worked out at 126 pg/mL. For the same molecule, the “IL-6, % of positive control” value in assay [3] (relative to DMSO+LPS positive control) is listed as 103%.
